Measured values reported in PMC6266505, “Limonoids Containing a C1–O–C29 Moiety: Isolation, Structural Modification, and Antiviral Activity” (Marine Drugs, 2018).
Read-outs that look alike come from different tables or passages of the source.

Assays:
in vitro = details: human
HIV-1 [1] = experiment: microbe, parasite or virus in culture
[2] = cited from earlier work
HIV-1 [3] = details: read-out: IC50 against HIV-1; cited from earlier work
IAV = experiment: Anti-IAV bioassay; assay type: cell-based; details: Influenza A virus, read-out: Inhibition Rate (%) against IAV, positive control
influenza A virus (IAV) = details: cited from earlier work

C/C=C(\C)C(=O)O[C@@H]1[C@@H]2C=C3[C@@H]4CC(=O)O[C@@H](c5ccoc5)[C@]4(C)CC[C@@H]3[C@]3(C)[C@@H](CC(=O)OC)[C@]1(C)CO[C@]23O [Compound 6, granatumin L]
CC50 (in vitro): > 100 µM
IC50 (HIV-1 [1]; Human immunodeficiency virus 1, SUP-T1, read-out: IC50 Value (μM) against HIV-1): 19.23 ± 0.12 µM
inhibition at 20 µM (HIV-1 [1]; Human immunodeficiency virus 1, SUP-T1, read-out: Inhibition Rate (20.0 μM) (%) against HIV-1): 67.1 ± 3.04%

CC[C@H](C)C(=O)O[C@@H]1C(=O)[C@@]2(OC(=O)C(C)C)[C@@]3(O)C[C@@]1(C)[C@H](CC(=O)OC)[C@@]3(C)[C@H]1CC[C@@]3(C)[C@H](c4ccoc4)OC(=O)C[C@]34O[C@]142 [Krishnolide A]
CC50 [2]: 78.5 ± 1.69 µM
IC50 (HIV-1 [3]): 17.4 ± 1.65 µM

NC(=O)c1ncn([C@@H]2O[C@H](CO)[C@@H](O)[C@H]2O)n1 [ribavirin]
inhibition at 60 µM (IAV): 87.5 ± 2.86%

COC(=O)C[C@@H]1[C@@]2(C)[C@H]3CC[C@]4(C)C(=C3[C@@]3(O)[C@@H](OC(C)=O)C(=O)[C@]1(C)C[C@@]23O)CC(=O)O[C@H]4c1ccoc1 [thaixylomolin I]
antiviral activity against influenza A virus (IAV), in words (influenza A virus (IAV)): moderate antiviral activity
IC50 (influenza A virus (IAV); read-out: IC50 against IAV): 77.1 ± 8.7 µM

COC(=O)C[C@H]1[C@@]2(C)C[C@]3(O)[C@H](C(=O)[C@H]2OC(C)=O)C2=C4CC(=O)O[C@@H](c5ccoc5)[C@]4(C)CC[C@@H]2[C@]13C [thaixylomolin K]
antiviral activity against influenza A virus (IAV), in words (influenza A virus (IAV)): moderate antiviral activity

COC(=O)C[C@H]1[C@@]2(C)C[C@]3(O)[C@H](C(=O)[C@H]2OC(C)=O)C2=C(CC[C@]4(C)C2=CC(=O)O[C@H]4c2ccoc2)[C@]13C [thaixylomolin M]
antiviral activity against influenza A virus (IAV), in words (influenza A virus (IAV)): moderate antiviral activity
